Measured values published in US20050059726A1, “Pyrrolidine-2-ones as factor xa inhibitors” (priority 2001, published 2005).
Counter-ions that a name gives are not always drawn.

Target: human Factor Xa (Homo sapiens, UniProt P00742)
Test: In vitro assay for inhibition of Factor Xa (2), fluorogenic assay
Format: biochemical
Conditions: substrate Rhodamine 110, bis-(CBZ-glycylglycyl-L-arginine amide 10 μM), Ki calculated from IC50
Description: In Vitro Assay for Inhibition of Factor Xa (2)
All other compounds of the present invention were tested for their Factor Xa inhibitory activity as determined in vitro by their ability to inhibit human Factor Xa in a fluorogenic assay, using Rhodamine 110, bis-(CBZ-glycylglycyl-L-arginine amide as the fluorogenic substrate. Compounds were diluted from a 10 mM stock solution in dimethylsulfoxide at appropriate concentrations. Assay was performed at room temperature using buffer consisting of: 50 mM Tris-HCl, 150 mM NaCl, 5 mM CaCl2, pH 7.4. containing human Factor Xa (final conc. Of 0.0003U.ml−1). Compound and enzyme were preincubated for 15 min prior to addition of the substrate (final conc. of 10 μM). The reaction was stopped after 3 hrs with the addition of H-D-PHE-PRO-ARG-Chloromethylketone. […] To obtain IC50 values the data were analysed using ActivityBase® and XLfit®.
Calculation of Ki values:
Ki=IC50/(1+[Substrate]/Km)
The Ki value for the above assay can be obtained by dividing the IC50 value by 1.6.

human Factor Xa, sequence (P00742 235-488 limits assumed): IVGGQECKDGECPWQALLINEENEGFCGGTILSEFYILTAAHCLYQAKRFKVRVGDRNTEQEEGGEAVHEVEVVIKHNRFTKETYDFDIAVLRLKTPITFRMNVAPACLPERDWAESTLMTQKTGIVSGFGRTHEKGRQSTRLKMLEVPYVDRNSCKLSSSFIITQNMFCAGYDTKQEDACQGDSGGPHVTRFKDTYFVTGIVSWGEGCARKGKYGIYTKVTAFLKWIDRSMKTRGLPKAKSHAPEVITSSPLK
human Factor Xa, sequence (P00742 41-179 partner limits assumed): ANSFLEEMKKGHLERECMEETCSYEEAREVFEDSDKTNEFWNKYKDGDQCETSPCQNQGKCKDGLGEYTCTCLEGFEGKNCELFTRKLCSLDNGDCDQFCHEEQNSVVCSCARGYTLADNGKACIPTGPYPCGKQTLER

Row | Ki | SMILES
1 | < 10 nM | CS(=O)(=O)c1ccccc1-c1ccc(N2CC[C@H](NS(=O)(=O)c3cc4cc(Cl)ccc4o3)C2=O)c(F)c1 [Example 5, 5-Chloro-N-{(3S)-1-[3-fluoro-2′-(methylsulfonyl)-1,1′-biphenyl-4-yl]-2-oxopyrrolidin-3-yl}-1-benzofuran-2-sulfonamide]
2 | < 1000 nM | CS(=O)(=O)c1ccccc1-c1ccc(N2CC[C@H](NS(=O)(=O)c3cccc4cnccc34)C2=O)c(F)c1 [Example 6, N-{(3S)-1-[3-Fluoro-2′-(methylsulfonyl)-1,1′-biphenyl-4-yl]-2-oxopyrrolidin-3-yl}isoquinoline-5-sulfonamide]
3 | < 10 nM | CS(=O)(=O)c1ccccc1-c1ccc(N2CC[C@H](NS(=O)(=O)/C=C/c3ccc(Cl)cc3)C2=O)c(F)c1 [Example 7, (E)-2-(4-Chlorophenyl)-N-{(3S)-1-[3-fluoro-2′-(methylsulfonyl)-1,1′-biphenyl-4-yl]-2-oxopyrrolidin-3-yl}ethenesulfonamide]
4 | < 10 nM | CS(=O)(=O)c1ccccc1-c1ccc(N2CC[C@H](NS(=O)(=O)c3ccc(-c4ccc(Cl)s4)s3)C2=O)c(F)c1 [Example 8, 5′-Chloro-N-{(3S)-1-[3-fluoro-2′-(methylsulfonyl)-1,1′-biphenyl-4-yl]-2-oxopyrrolidin-3-yl}-2,2′-bithiophene-5-sulfonamide]
5 | < 1000 nM | CN(C)c1ccc2cc(S(=O)(=O)N[C@H]3CCN(c4ccc(-c5ccccc5S(C)(=O)=O)cc4F)C3=O)ccc2c1 [Example 9, 6-(Dimethylamino)-N-{(3S)-1-[3-fluoro-2′-(methylsulfonyl)-1,1′-biphenyl-4-yl]-2-oxopyrrolidin-3-yl}naphthalene-2-sulfonamide]
6 | < 10 nM | CS(=O)(=O)c1ccccc1-c1ccc(N2CC[C@H](NS(=O)(=O)c3cc4ccc(Cl)cc4s3)C2=O)c(F)c1 [Example 11, 6-Chloro-N-{(3S)-1-[3-fluoro-2′-(methylsulfonyl)-1,1′-biphenyl-4-yl]-2-oxopyrrolidin-3-yl}-1-benzothiophene-2-sulfonamide]
7 | < 10 nM | CS(=O)(=O)c1ccccc1-c1ccc(N2CC[C@H](NS(=O)(=O)c3cc4cc(Cl)ccc4s3)C2=O)c(F)c1 [Example 12, 5-Chloro-N-{(3S)-1-[3-fluoro-2′-(methylsulfonyl)-1,1′-biphenyl-4-yl]-2-oxopyrrolidin-3yl}-1-benzothiophene-2-sulfonamide]
8 | < 10 nM | NS(=O)(=O)c1ccccc1-c1ccc(N2CC[C@H](NS(=O)(=O)c3cc4ccc(Cl)cc4s3)C2=O)c(F)c1 [Example 15, N-{(3S)-1-[2′-(Aninosulfonyl)-3-fluoro-1,1′-biphenyl-4-yl]-2-oxopyrrolidin-3-yl}-6-chloro-1-benzothiophene-2-sulfonamide]
9 | < 10 nM | C/C(=C\S(=O)(=O)N[C@H]1CCN(c2ccc(-c3ccccc3S(N)(=O)=O)cc2F)C1=O)c1ccc(Cl)s1 [Example 16, 4′-[(3S)-3-({[(1E)-2-(5-Chlorothien-2-yl)prop-1-enyl]sulfonyl}amino)-2-oxopyrrolidin-1-yl]-3′-fluoro-1,1′-biphenyl-2-sulfonamide]
10 | < 10 nM | O=C1[C@@H](NS(=O)(=O)/C=C/c2ccc(Cl)s2)CCN1c1ccc(-c2ccccc2[N+](=O)[O-])cn1 [Example 17, (E)-2-(5-Chlorothien-2-yl)-N-{(3S)-1-[5-(2-nitrophenyl)pyridin-2-yl]-2-oxopyrrolidin-3-yl}ethenesulfonamide]
11 | < 10 nM | O=C1[C@@H](NS(=O)(=O)/C=C/c2ccc(Cl)s2)CCN1c1ccc(-c2ccccc2[N+](=O)[O-])cc1F [Example 18, (E)-2-(5-Chlorothien-2-yl)-N-[(3S)-1-(3-fluoro-2′-nitro-1,1′-biphenyl-4-yl)-2-oxopyrrolidin-3-yl]ethenesulfonamide]
12 | < 10 nM | O=C1[C@@H](NS(=O)(=O)/C=C/c2ccc(Cl)s2)CCN1c1ccc(-c2ccccc2C(F)(F)F)cn1 [Example 24, (E)-2-(5-Chlorothien-2-yl)-N-((3S)-2-oxo-1-{5-[2-(trifluoromethyl)phenyl]pyridin-2-yl}pyrrolidin-3yl)ethenesulfonamide]
13 | < 20 nM | CN(C)C(=O)c1ccccc1-c1ccc(N2CC[C@H](NS(=O)(=O)/C=C/c3ccc(Cl)s3)C2=O)nc1 [Example 25, 2-{6-[(3S)-3-({[(E)-2-(5-Chlorothien-2-yl)ethenyl]sulfonyl}amino)-2-oxopyrrolidin-1-yl]pyridin-3-yl}-N,N-dimethylbenzamide]
14 | < 10 nM | N#Cc1ccccc1-c1ccc(N2CC[C@H](NS(=O)(=O)/C=C/c3ccc(Cl)s3)C2=O)nc1 [Example 26, (E)-2-(5-Chlorothien-2-yl)-N-{(3S)-1-[5-(2-cyanophenyl)pyridin-2yl]-2-oxopyrrolidin-3-yl}ethenesulfonamide]
15 | < 10 nM | CN(C)S(=O)(=O)c1ccccc1-c1ccc(N2CC[C@H](NS(=O)(=O)/C=C/c3ccc(Cl)s3)C2=O)nc1 [Example 28]
16 | < 10 nM | CNS(=O)(=O)c1ccccc1-c1ccc(N2CC[C@H](NS(=O)(=O)/C=C/c3ccc(Cl)s3)C2=O)nc1 [Example 29, 2-{6-[(3S)-3-({[(E)-2-(5-Chlorothien-2-yl)ethenyl]sulfonyl}amino)-2-oxopyrrolidin-1-yl]pyridin-3-yl}-N-methylbenzenesulfonamide]
17 | < 10 nM | CN(c1ccccc1-c1ccc(N2CC[C@H](NS(=O)(=O)/C=C/c3ccc(Cl)s3)C2=O)nc1)S(C)(=O)=O [Example 30, (E)-2-(5-Chlorothien-2-yl)-N-[(3S)-1-(5-{2-[methyl(methylsulfonyl)amino]phenyl}pyridin-2-yl)-2-oxopyrrolidin-3yl]ethenesulfonamide]
18 | < 200 nM | CC(C)Oc1ccccc1-c1ccc(N2CC[C@H](NS(=O)(=O)/C=C/c3ccc(Cl)s3)C2=O)nc1 [Example 31, (E)-2-(5-Chlorothien-2-yl)-N-{(3S)-1-[5-(2-isopropoxyphenyl)pyridin-2-yl]-2-oxopyrrolidin-3-yl}ethenesulfonamide]
19 | < 1000 nM | CS(=O)(=O)c1ccccc1-c1ccc(N2CC[C@H](NS(=O)(=O)c3ccc(C#N)cc3)C2=O)c(F)c1 [Example 34]
20 | < 10 nM | CS(=O)(=O)c1ccccc1-c1ccc(N2CC[C@H](NS(=O)(=O)c3cc4ccc(Cl)cc4o3)C2=O)c(F)c1 [Example 36, 6-Chloro-N-{(3S)-1-[3-fluoro-2′-(methylsulfonyl)-1,1′-biphenyl-4yl]-2-oxopyrrolidin-3-yl}-1-benzofuran-2-sulfonamide]
21 | < 20 nM | CS(=O)(=O)c1ccccc1-c1ccc(N2CC[C@H](NS(=O)(=O)c3cc4ncc(Cl)cc4s3)C2=O)c(F)c1 [Example 37, 6-Chloro-N-{(3S)-1-[3-fluoro-2′-(methylsulfonyl)-1,1′-biphenyl-yl]-2-oxopyrrolidin-3-yl}thieno[3,2b]pyridine-2-sulfonamide]
22 | < 10 nM | CS(=O)(=O)c1ccccc1-c1ccc(N2CC[C@H](NS(=O)(=O)c3cc4nc(Cl)ccc4s3)C2=O)c(F)c1 [Example 38, 5-Chloro-N-{(3S)-1-[3-fluoro-2′-(methylsulfonyl)-1,1′-biphenyl-4-yl]-2-oxopyrrolidin-3-yl}thieno[3,2-b]pyridine-2-sulfonamide]
23 | < 10 nM | C/C(=C\S(=O)(=O)N[C@H]1CCN(c2ccc(-c3ccccc3S(C)(=O)=O)cc2F)C1=O)c1ccc(Cl)s1 [Example 39, (1E)-2-(5-Chlorothien-2-yl)-N-{(3S)-1-[3-fluoro-2′-(methylsulfonyl)-1,1′-biphenyl-4yl]-2-oxopyrrolidin-3-yl}prop-1-ene-1-sulfonamide]
24 | < 10 nM | CC(C)(C)OC(=O)CN([C@H]1CCN(c2ccc(-c3ccccc3S(C)(=O)=O)cn2)C1=O)S(=O)(=O)/C=C/c1ccc(Cl)s1 [Example 40, tert-Butyl [{[(E)-2-(5-Chlorothien-2-yl)ethenyl]sulfonyl}((3S)-1-{5-[2-(methylsulfonyl)phenyl]pyridin-2-yl}-2-oxopyrrolidin-3-yl)amino]acetate]
25 | < 10 nM | CS(=O)(=O)c1ccccc1-c1ccc(N2CC[C@H](N(CCN3CCOCC3)S(=O)(=O)/C=C/c3ccc(Cl)s3)C2=O)nc1 [Example 42, (E)-2-(5-Chlorothien-2-yl)-N-((3S)-1-{5-[2-(methylsulfonyl)Phenyl]pyridin-2-yl}-2-oxopyrrolidin-3-yl)-N-(2-morpholin-4-ylethyl)ethenesulfonamide Formate Salt (1:1)]
26 | < 10 nM | CS(=O)(=O)c1ccccc1-c1ccc(N2CC[C@H](N(CC(N)=O)S(=O)(=O)/C=C/c3ccc(Cl)s3)C2=O)nc1 [Example 43, 2-[{[(E)-2-(5-Chlorothien-2-yl)ethenyl]sulfonyl}((3S)-1-{5-[2-(methylsulfonyl)phenyl]pyridin-2-yl}-2-oxopyrrolidin-3-yl)amino]acetamide]
27 | < 10 nM | CC(C)(C)OC(=O)N([C@H]1CCN(c2ccc(-c3ccccc3S(C)(=O)=O)cc2F)C1=O)S(=O)(=O)/C=C/c1ccc(Cl)s1 [Example 44, tert-Butyl [(E)-2-(5-chlorothien-2-yl)ethenyl]sulfonly{(3S)-1-[3-fluoro-2′-(methylsulfonyl)-1,1′-biphenyl-4yl]-2-oxopyrrolidin-3-yl}carbamate]
28 | < 10 nM | CS(=O)(=O)c1ccccc1-c1ccc(N2CC[C@H](N(CCN3CCOCC3)S(=O)(=O)/C=C/c3ccc(Cl)s3)C2=O)c(F)c1 [Example 45, (E)-2-(5-Chlorothien-2-yl)-N-{(3S)-1-[3-fluoro-2′-(methylsulfonyl)-1,1′-biphenyl-4-yl]-2-oxopyrrolidin-3-yl}-N-(2-morpholin-4-ylethyl)ethenesulfonamide]
29 | < 10 nM | CS(=O)(=O)c1ccccc1-c1ccc(N2CC[C@H](N(CC(N)=O)S(=O)(=O)/C=C/c3ccc(Cl)s3)C2=O)c(F)c1 [Example 46]
